For one compound, inhibition and Activity results are on record in ChEMBL document CHEMBL5321275, “Discovery, Optimization, and Evaluation of Novel N-(Benzimidazol-5-yl)-1,3,4-thiadiazol-2-amine Analogues as Potent STAT3 Inhibitors for Cancer Treatment” (J Med Chem, 2023).

Series [1] has as its target Signal transducer and activator of transcription 3 (Homo sapiens, UniProt P40763). The series can be described thus: Inhibition of STAT3 nuclear translocation in human DU-145 cells at 5 uM measured after 24 hrs by immunofluorescence assay. The class given is cell-based.
In series [2] the test system is MDA-MB-231. The series can be described thus: Induction of apoptosis in human MDA-MB-231 cells assessed as early apoptotic cells at 10 uM measured after 48 hrs by annexin V-FITC and PI staining based flow cytometry analysis (reference value: 6.7%). The class given is functional. A general note: A flow cytometer gives signals particle by particle.
The target in series [3] is T1, Signal transducer and activator of transcription 1-alpha/beta (Homo sapiens) (UniProt P42224).
T1 sequence (whole entry): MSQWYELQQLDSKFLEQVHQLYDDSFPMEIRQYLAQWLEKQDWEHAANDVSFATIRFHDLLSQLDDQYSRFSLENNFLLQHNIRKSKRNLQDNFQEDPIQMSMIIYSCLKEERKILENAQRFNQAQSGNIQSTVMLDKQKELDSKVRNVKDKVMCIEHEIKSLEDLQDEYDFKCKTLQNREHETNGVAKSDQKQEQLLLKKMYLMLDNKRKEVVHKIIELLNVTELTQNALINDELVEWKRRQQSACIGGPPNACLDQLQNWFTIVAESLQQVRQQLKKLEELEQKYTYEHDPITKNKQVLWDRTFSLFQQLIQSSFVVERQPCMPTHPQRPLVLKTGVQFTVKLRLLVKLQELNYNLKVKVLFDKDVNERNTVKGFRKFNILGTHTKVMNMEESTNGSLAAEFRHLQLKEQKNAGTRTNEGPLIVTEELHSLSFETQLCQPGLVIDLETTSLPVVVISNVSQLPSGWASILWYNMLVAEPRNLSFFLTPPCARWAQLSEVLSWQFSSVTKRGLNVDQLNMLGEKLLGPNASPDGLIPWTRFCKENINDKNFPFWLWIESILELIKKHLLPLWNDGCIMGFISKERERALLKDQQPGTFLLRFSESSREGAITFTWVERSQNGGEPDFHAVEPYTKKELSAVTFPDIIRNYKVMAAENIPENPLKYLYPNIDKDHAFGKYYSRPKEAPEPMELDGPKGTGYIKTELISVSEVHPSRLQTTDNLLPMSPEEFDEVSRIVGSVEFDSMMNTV
The series can be described thus: Inhibition of STAT1 phosphorylation in human DU-145 cells at 10 uM measured after 24 hrs by Western blot analysis. It counts as cell-based. On the technique in general: A western blot detects proteins with antibodies after separation by electrophoresis.

The nature of series [4]: Toxicity in Balb/c mouse assessed as serious adverse effect at 50 mg/kg, ip administered once daily for 16 days. It counts as organism-based. Particulars: in vivo, 384 h, time 16 day.
Series [5] addresses Tyrosine-protein kinase JAK2 (Homo sapiens) (UniProt O60674). The series can be described thus: Inhibition of JAK2 phosphorylation in human DU-145 cells at 10 uM measured after 24 hrs by Western blot analysis. It counts as cell-based.

The source made the active and inactive calls. The calls are words filed in the database; no cut-off is given here.

Sequence of Signal transducer and activator of transcription 3 (P40763 whole entry): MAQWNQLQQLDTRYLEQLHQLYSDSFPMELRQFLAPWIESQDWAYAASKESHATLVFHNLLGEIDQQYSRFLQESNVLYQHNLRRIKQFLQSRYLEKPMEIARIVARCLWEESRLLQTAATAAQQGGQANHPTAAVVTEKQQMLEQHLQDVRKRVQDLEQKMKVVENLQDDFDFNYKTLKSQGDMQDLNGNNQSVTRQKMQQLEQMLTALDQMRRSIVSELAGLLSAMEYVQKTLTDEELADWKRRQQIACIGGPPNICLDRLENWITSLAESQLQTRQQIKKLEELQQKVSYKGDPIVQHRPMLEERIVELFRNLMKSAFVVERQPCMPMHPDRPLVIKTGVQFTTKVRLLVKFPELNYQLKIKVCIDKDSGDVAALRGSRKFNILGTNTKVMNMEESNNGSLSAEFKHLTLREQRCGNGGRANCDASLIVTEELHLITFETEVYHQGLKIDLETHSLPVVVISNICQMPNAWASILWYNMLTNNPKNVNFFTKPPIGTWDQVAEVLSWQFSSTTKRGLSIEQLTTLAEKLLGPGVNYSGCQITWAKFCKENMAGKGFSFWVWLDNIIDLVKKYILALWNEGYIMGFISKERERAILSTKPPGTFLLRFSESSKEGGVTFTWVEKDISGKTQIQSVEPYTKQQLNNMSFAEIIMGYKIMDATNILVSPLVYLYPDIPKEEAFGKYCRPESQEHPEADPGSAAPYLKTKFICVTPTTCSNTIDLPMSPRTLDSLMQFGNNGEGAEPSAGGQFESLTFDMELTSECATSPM
Sequence of Tyrosine-protein kinase JAK2 (Homo sapiens) (O60674 whole entry): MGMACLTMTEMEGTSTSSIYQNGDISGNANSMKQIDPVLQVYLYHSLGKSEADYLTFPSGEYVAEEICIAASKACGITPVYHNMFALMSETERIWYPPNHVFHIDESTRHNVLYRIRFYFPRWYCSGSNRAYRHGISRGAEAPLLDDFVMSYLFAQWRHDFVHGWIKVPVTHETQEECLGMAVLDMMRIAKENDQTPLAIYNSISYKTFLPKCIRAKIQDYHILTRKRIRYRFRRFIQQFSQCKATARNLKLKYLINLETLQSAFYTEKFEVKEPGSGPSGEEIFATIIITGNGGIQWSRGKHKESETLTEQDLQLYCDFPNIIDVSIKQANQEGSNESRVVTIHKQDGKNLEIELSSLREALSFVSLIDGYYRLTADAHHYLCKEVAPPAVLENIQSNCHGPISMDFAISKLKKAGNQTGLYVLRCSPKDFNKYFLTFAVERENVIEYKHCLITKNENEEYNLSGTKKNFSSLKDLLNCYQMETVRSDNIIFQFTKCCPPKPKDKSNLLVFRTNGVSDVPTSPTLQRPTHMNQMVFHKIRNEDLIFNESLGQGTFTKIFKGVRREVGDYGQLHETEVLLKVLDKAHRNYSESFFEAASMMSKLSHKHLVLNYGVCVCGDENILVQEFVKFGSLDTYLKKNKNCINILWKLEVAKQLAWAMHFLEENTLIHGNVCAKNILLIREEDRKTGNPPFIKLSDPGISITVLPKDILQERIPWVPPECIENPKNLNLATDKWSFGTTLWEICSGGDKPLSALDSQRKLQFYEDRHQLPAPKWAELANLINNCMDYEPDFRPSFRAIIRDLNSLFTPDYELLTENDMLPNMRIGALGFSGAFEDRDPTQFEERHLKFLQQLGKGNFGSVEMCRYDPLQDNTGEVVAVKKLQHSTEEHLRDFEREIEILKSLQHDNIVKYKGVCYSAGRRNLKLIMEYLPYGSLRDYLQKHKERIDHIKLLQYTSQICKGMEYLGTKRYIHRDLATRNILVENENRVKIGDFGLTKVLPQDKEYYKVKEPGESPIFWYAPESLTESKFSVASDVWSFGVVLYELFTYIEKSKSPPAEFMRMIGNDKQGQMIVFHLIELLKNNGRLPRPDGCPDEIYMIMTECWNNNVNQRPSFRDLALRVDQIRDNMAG

On to `CN1CCN(c2cc3c(cc2Nc2nnc(-c4ccc(C(F)(F)F)cc4)s2)nc(-c2ccc(F)cc2)n3C2CC2)CC1`, for which, in series [1], the inhibition entry is “Active”. Further, the Activity in series [2] is on record as 59.2%; in series [4], “Non-Toxic”. The inhibition entry in series [3] and in series [5] was “inactive” each time.
